US20150105329A1, “Methods and Pharmaceutical Compositions for Prevention or Treatment of Ischemia Related Organ Damage” (INSERM (Institut National de la Sante et de la Recherche …, priority 2012, published 2015)

Key:
[1] = test system: myocardial ischemia/reperfusion injury; assay: Myocardial ischemia/reperfusion injury, infarct size; type: in vivo, C57/Bl6J mice; conditions: for decrease of infarct size vs saline: 30 min ischemia, 3 h reperfusion, p<0.05 vs saline
Description: Adult C57/Bl6J mice of 12-15 weeks old (20-30 g) were anesthetized with sodium pentobarbital (60 mg/kg, i.p.). The animals were intubated and ventilated with 100% oxygen (200 μl/breath at a rate of 170 breaths/min), using a Harvard rodent ventilator (Model 845, Harvard Apparatus, Les Ulis, France). Body temperature was monitored with a rectal probe connected to a digital thermometer, and maintained at 37° C. using a heating pad. A catheter was inserted into the jugular vein for bolus injection of drug (0.01 ml/10 g BW, 10-20 sec). The electrocardiogram (ECG) was recorded throughout the experiments on a Gould TA240 recorder (ECG biotech; Gould Instruments, Cleveland, Ohio, USA). A left thoracotomy was performed to expose the heart, and the pericardium was removed. The left anterior descending coronary artery was occluded with an 8.0 prolene suture, 2 mm from the tip of the left atrium for 30 min. Successful coronary occlusion was verified by the development of a pale color in the distal myocardium and by ST segment elevation and QRS widening on the ECG. After 30 min of sustained ischemia, coronary blood flow was restored by loosening the suture. Successful reperfusion was confirmed by visualization of hyperaemic response and restoration of normal ECG. The lungs were then reinflated by increasing positive end expiratory pressure, and the chest was closed. Reperfusion was maintained for a 3-h period. Drugs dissolved in isotonic saline were injected 5 minutes before reperfusion. B2 receptor agonist was administrated at different non hypotensive dosages as defined in preliminary experiments. To ensure the role of specific activation of B2 receptor, B2 agonist was tested with pretreatment by B2R antagonist (HOE140). After reperfusion, the chest was reopened, the coronary artery was reoccluded, and 0.5 ml of a 5% Evans blue solution was injected as a bolus into the jugular vein in order to delineate the area at risk (AR), which remained unstained by the Evans blue. The heart was excised, and the left ventricle (LV) was isolated, weighed, and sliced into 4 transverse pieces from base to apex, the first cutter blade being positioned at the site of the coronary occlusion. The slices were weighed, and color digital images of both sides of each slice were obtained with a Power Shot S50 zoom digital camera (Canon, Tokyo, Japan) connected to a microscope (Leica M Z 75; Leica Microsystems, Rueil-Malmaison, France), using the Adobe Photoshop software (Adobe Systems, San Jose, Calif., USA). The slices were then incubated at 37° C. with buffered 1% 2,3,5-triphenyltetrazolium chloride (TTC) solution for 20 min. Viable myocardium, which contained dehydrogenases, reacted with TTC and was stained brick red, whereas any necrotic tissue remained unstained due to the lack of active enzymes. The tissue sections were then fixed in a buffered 10% formalin solution for 24 h before being photographed again to delineate the IS. The cross-sectional area, the lumen area, the AR (unstained by Evans blue), and IS (unstained by TTC) of the LV were outlined on each color image and quantified by a masked observer using the Scion Image software (Scion Image for Windows; http://www.scioncorp.com). The absolute weights of AR and IS were then calculated for each slice. The sum of the absolute weight values of AR and IS of the 3 ischemic slices of each heart was calculated and expressed as a percentage of the total weight of the slice. The ratio of IS to AR was calculated from these absolute weight evaluations and expressed as a percentage of AR.

[2] = test system: hindlimb ischemia in streptozotocin-diabetic mice; assay: Peripheral (hindlimb) ischemia in diabetic mice, neovascularization; type: in vivo, C57BL/6J mice
Description: Two-to three-month-old male C57BL/6J mice were used. Type 1 diabetes was induced by 5 daily ip injections of low-dose of streptozotocin (50 mg/kg dissolved in 0.05M sodium citrate buffer, pH 4.5). Ischemia of hinlimb was induced by permanent ligation of the right femoral artery once the diabetes is established (hyperglycemia >300 mg/dl, 4 weeks after streptozocin injections). Mice were anesthetized by isoflurane inhalation (0.8% in oxygen stream) and the proximal part of the femoral artery just below the origin of the circumflexa femoris lateralis was occluded with a silk suture. Concomitantly with the surgery, half the mice was treated with the B2 agonist (30 nmol/kg·h^−1), infused continuously through osmotic minipumps implanted subcutaneously. The other half of the mice was infused with the vehicle (isotonic saline). Healthy mice, non diabetic without ischemia were used as control.
Two weeks after the onset of ischemia, neovascularization was evaluated by two methods. —Arteries were quantified by high definition microangiography using barium sulfate and digital X-ray transducer. Mice were anesthetized (Pentobarbital injection, 60 mg/kg, I.P.) and longitudinal laparatomy was performed to introduce a polyethylene catheter into the abdominal aorta to inject contrast medium (Barium sulfate, 1 mg/ml). Images (two per animal) were acquired using a high-definition digital X-ray transducer. Vessel density was expressed as a percentage of pixels per image occupied by vessel density in the quantification area. —Capillary density was analyzed by immunohistochemistry using fibronectin-FITC antibody. Frozen tissue sections (7 μm) from calf muscle were incubated with rabbit polyclonal antibody directed against total fibronectin (dilution 1:50) to identify capillaries. The number of capillary by field was determined in both ischemic and nonischemic legs. Results are expressed as ischemic to nonischemic ratio.

[3] = biological target: T1, hB2R (Homo sapiens, UniProt P30411); conditions: naturally expressed and recombinant hB2R; cited from earlier work
T1 sequence (P30411 1-391): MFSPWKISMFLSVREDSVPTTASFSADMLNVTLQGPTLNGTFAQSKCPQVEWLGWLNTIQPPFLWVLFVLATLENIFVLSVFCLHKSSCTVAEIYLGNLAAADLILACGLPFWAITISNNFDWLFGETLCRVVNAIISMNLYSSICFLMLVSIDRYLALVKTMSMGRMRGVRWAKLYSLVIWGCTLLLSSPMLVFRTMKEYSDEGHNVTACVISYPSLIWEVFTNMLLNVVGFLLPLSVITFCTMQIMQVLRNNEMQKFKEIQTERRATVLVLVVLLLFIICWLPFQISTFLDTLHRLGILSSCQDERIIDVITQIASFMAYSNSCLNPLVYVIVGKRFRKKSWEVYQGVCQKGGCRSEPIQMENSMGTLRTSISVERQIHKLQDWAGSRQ

[4] = cited from earlier work
[5] = biological target: T1, hB2R; conditions: naturally expressed and recombinant hB2R; cited from earlier work; remark: listed apart in the source
[6] = 30 nmol/kg·h s.c. osmotic minipump, 14 days of ischemia

| Substance | effect on infarct size ([1]; antagonist given alone) | effect on cardioprotection by B2 agonist ([1]; pretreatment with B2R antagonist before B2 agonist) | angiographic score [2, 6] | capillary density [2, 6] | angiogenic effect ([2]; chronic administration 30 nmol/kg·h, FIG. 2) | in vitro affinities compared with bradykinin [3] | potency and duration of action in vivo compared with bradykinin [4] | in vitro potencies compared with bradykinin [5] | decrease of infarct size vs saline ([1]; 0.01 nmol/kg i.v. bolus 5 min before reperfusion) [%] | decrease of infarct size vs saline ([1]; 0.1 nmol/kg i.v. bolus 5 min before reperfusion) [%] | decrease of infarct size vs saline ([1]; 0.3 nmol/kg i.v. bolus 5 min before reperfusion) [%] | infarct size relative to area at risk ([1]; acute administration, FIG. 1) |
| --- | --- | --- | --- | --- | --- | --- | --- | --- | --- | --- | --- | --- |
| HOE140 | no effect on infarct size | suppressed the cardioprotective effect of B2 agonist | – | – | – | – | – | – | – | – | – | – |
| [Hyp(3), Thi(5), (N)Chg(7), Thi(8)]-BK [peptide 20] | – | – | increase | increase | proangiogenic effect | greater | highly superior to bradykinin | greater | −37.2 | −47.3 | −35.6 | Reducing effect |
